US20170202939A1, “PERSONALIZED CANCER VACCINES AND METHODS THEREFOR” (Washington University, priority 2014, published 2017)
No end group written: not given here.

Target: T1, soluble HLA-A*02:01 from TMC expressing A375 melanoma cells (Homo sapiens, UniProt P04439, D140Y/D185E/D98H/E176V/E277Q/G131W/G231S/I119V/I121R/I166T/I218V/L300P/L318F/N151K/N90K/P208A/P217A/Q86G/Q94H/R138H/R169H/T345S)
T1 construct: TMC expressing A375 melanoma cells were transfected with soluble HLA-A*02:01(sHLA-A*02:01); expressed in transfected cells; host or cells: A375 melanoma cells expressing the MEL218 AAS tandem mini-gene construct
Assay: proteomic analysis (RP-HPLC, LC/MS) of peptides eluted from soluble HLA-A*02:01
Conditions: A375 melanoma cells expressing MEL218 TMC
Experimental: To validate neoantigen processing and presentation, proteomic analysis was performed on peptides eluted from soluble HLA-A*02:01 molecules isolated from melanoma cells expressing a TMC encoding AAS candidates from patient MEL218 tumor (Sercarz, E. E., et al., Annu. Rev. Imunol., 11, 729-766, 1993; Assarsson, E., et al., J. Immunol., 178, 7890-7901, 2007). TMC expressing A375 melanoma cells were transfected with soluble HLA-A*02:01(sHLA-A*02:01) and single cell sorted for a high (>1000 ng/ml in static culture) sHLAA*02:01 producing clone. The sHLA-A*02:01 construct includes a C-terminal VLDLr epitope purification tag ([…] ID NO. 32) that is recognized by the anti-VLDLr mAb (ATCC CRL-2197). This antibody was also used for quantification of sHLA production as the capture antibody in a sandwich ELISA, with an antibody directed against β2-microglobulin (Dako Cytomation) as the detector antibody. Cells were grown in roller bottles and sHLA/peptide complexes were purified from supernatants by affinity chromatography with the anti-VLDLr antibody (Kaabinejadian, S., et al., P.L.o.S. One, 8, e66298, 2013). Eluate fractions containing sHLA/peptide complexes were brought to a final acetic acid concentration of 10%, pooled, and heated to 78° C. in a water bath. Peptides were purified through a 3 kDa molecular weight cutoff cellulose membrane (EMD Millipore) and lyophilized.
Synthetic peptides corresponding to the mutant sequences were resuspended in 10% acetic acid in water at 1 μM, and fractionated by RP-HPLC with an acetonitrile gradient in 10 mM ammonium formate at pH 10. Peptide-containing fractions were dried and resuspended in 25 ul of 10% acetic acid and subjected to nanoscale RP-HPLC at pH 2.5 utilizing an Eksigent nanoLC coupled to a TripleTOF 5600 (AB Sciex) quadrupole time-of-flight mass spectrometer (LC/MS). Information dependent acquisition (IDA) was used to obtain MS and MS/MS fragment spectra for peptide ions. The sequence of each peptide was determined by observed mass and fragment ions, and the 1st dimension fraction number and LC/MS retention times were recorded.
Next, peptides purified from TMC expressing A375 melanoma cells were resuspended in 10% acetic acid and HPLC fractionated under the same conditions and gradient method. Reverse phase HPLC was used to reduce the complexity and determine the elution profile of the pool of soluble HLA-A*02:01 restricted peptides presented by melanoma cells, as well as, the synthetic AAS peptide mixture. FIGS. 40A and 40E illustrate RP-HPLC fractionation of HLA-A*02:01 peptides eluted from the AAS-TMC expressing melanoma cell line (solid trace) and the synthetic peptide mixture containing MEL218 neoantigen candidates (dashed trace), with fraction 50 (FIG. 40A) and fraction 44 (FIG. 40E) indicated. […]

Sequence | HLA-A*02:01 presentation by LC/MS of eluted peptides
IILVAVPHV | confirmed HLA-A*02:01 presentation
MLGEQLFPL | demonstrated the HLA-A*02:01 presentation
